Earlier results on 1 compound are cited in US10029116B2, “Method for the treatment of acne” (DUSA PHARMACEUTICALS, INC., priority 2012, dated 2018).

Where only a bound is given, the exact number is not on record here.

Series [1] has as its system protoporphyrin IX. The following applies: mouse skin.
Series [2] has as its system protoporphyrin IX in acne lesions.

As for `NCC(=O)CCC(=O)O` [ALA, aminolevulinic acid], in series [1], the “time for protoporphyrin levels to return to near pretreatment baseline” value is on record as “about 18 hours” and the “time to peak protoporphyrin IX concentration” value is listed as “about six”. Besides, the “time by which the ability of light to excite protoporphyrin IX in acne lesions disappeared” value in series [2] (no occlusive covering) was not above 24 h. Besides, the “persistence of the ability of light to excite protoporphyrin IX in skin having acne lesions” value in series [2] (occlusive covering placed over the skin) is not above 24 h.
